Source: ChEMBL document CHEMBL4024706 (Eur J Med Chem, 2017)

Tests used:
[1] = system: SU-DHL-2; experiment: Growth inhibition of human SU-DHL-2 cells; type: functional; conditions: Homo sapiens, SU-DHL-2
[2] = target: Tyrosine-protein kinase BTK (Homo sapiens, UniProt Q06187); experiment: Inhibition of BTK auto-phosphorylation at Y223 in human U2932 cells measured after 4 hrs by chemiluminescent assay
[3] = system: Tyrosine-protein kinase ABL1 (Homo sapiens), P00519 [E255K]; experiment: Inhibition of human phosphorylated ABL1 E255K mutant (S229 to K512 residues) expressed in mammalian expression system assessed as residual activity at 1 uM by Kinomescan method relative to control
[4] = system: Tyrosine-protein kinase ABL1 (Homo sapiens), P00519 [T315I]; experiment: Inhibition of human phosphorylated ABL1 T315I mutant (S229 to K512 residues) expressed in mammalian expression system assessed as residual activity at 1 uM by Kinomescan method relative to control
[5] = target: 5'-AMP-activated protein kinase catalytic subunit alpha-2 (Homo sapiens) (UniProt P54646); experiment: Inhibition of wild-type human partial length AMPK alpha2 (M1 to E306 residues) expressed in bacterial expression system assessed as residual activity at 1 uM by Kinomescan method relative to control
[6] = target: Mitotic checkpoint serine/threonine-protein kinase BUB1 (Homo sapiens) (UniProt O43683); experiment: Inhibition of wild-type human partial length BUB1 (Q724 to K1085 residues) expressed in mammalian expression system assessed as residual activity at 1 uM by Kinomescan method relative to control
[7] = target: Calcium/calmodulin-dependent protein kinase type II subunit alpha (Homo sapiens) (UniProt Q9UQM7); experiment: Inhibition of wild-type human partial length CAMK2A (M1 to K328 residues) expressed in bacterial expression system assessed as residual activity at 1 uM by Kinomescan method relative to control
[8] = target: Cyclin-dependent kinase 2 (Homo sapiens) (UniProt P24941); experiment: Inhibition of wild-type human full length CDK2 (M1 to L298 residues) expressed in bacterial expression system assessed as residual activity at 1 uM by Kinomescan method relative to control
[9] = target: Ephrin type-A receptor 1 (Homo sapiens) (UniProt P21709); experiment: Inhibition of wild-type human partial length EPHA1 (V588 to I913 residues) expressed in bacterial expression system assessed as residual activity at 1 uM by Kinomescan method relative to control
[10] = target: Ephrin type-A receptor 6 (Homo sapiens) (UniProt Q9UF33); experiment: Inhibition of wild-type human partial length EPHA6 (Y700 to E1046 residues) expressed in bacterial expression system assessed as residual activity at 1 uM by Kinomescan method relative to control
[11] = target: Fibroblast growth factor receptor 4 (Homo sapiens) (UniProt P22455); experiment: Inhibition of wild-type human partial length FGFR4 (G402 to E713 residues) expressed in bacterial expression system assessed as residual activity at 1 uM by Kinomescan method relative to control
Chain of Fibroblast growth factor receptor 4 (Homo sapiens) (P22455 22-802 limits assumed): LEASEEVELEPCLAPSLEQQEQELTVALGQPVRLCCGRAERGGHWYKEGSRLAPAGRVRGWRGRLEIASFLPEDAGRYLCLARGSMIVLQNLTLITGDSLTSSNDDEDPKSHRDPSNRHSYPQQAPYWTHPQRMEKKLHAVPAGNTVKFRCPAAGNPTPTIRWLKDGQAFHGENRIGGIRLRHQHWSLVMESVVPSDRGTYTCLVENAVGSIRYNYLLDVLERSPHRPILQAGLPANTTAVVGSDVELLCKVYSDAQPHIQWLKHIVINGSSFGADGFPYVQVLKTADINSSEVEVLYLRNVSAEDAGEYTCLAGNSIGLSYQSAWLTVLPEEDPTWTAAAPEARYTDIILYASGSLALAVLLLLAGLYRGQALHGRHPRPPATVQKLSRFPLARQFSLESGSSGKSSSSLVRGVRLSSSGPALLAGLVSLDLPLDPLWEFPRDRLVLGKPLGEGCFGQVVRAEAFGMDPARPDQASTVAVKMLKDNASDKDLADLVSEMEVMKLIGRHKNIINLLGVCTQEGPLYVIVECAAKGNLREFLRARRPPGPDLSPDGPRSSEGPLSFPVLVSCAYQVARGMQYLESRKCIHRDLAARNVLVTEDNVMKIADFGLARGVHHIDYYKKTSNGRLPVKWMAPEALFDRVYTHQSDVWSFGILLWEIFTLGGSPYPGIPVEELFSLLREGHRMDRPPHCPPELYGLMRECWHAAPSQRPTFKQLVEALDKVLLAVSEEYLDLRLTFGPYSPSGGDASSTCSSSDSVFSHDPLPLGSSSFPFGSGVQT

[12] = target: Glycogen synthase kinase-3 alpha (Homo sapiens) (UniProt P49840); experiment: Inhibition of wild-type human full length GSK3A (M1 to S483 residues) expressed in bacterial expression system assessed as residual activity at 1 uM by Kinomescan method relative to control
Chain of Glycogen synthase kinase-3 alpha (Homo sapiens) (P49840 2-483 limits assumed): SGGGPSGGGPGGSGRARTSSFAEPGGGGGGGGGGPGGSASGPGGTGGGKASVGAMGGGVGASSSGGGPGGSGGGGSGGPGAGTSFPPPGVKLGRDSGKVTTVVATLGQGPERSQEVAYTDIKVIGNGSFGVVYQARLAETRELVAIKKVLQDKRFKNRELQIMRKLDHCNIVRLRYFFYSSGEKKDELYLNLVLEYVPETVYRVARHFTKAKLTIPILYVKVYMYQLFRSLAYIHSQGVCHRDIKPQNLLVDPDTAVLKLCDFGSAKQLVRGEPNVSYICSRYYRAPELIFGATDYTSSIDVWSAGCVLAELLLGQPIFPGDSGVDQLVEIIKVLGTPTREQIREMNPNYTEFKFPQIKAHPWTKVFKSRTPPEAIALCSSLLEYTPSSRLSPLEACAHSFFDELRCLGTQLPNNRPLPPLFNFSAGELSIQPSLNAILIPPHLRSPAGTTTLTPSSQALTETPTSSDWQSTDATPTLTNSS

[13] = target: Homeodomain-interacting protein kinase 1 (Homo sapiens) (UniProt Q86Z02); experiment: Inhibition of wild-type human partial length HIPK1 (M146 to I555 residues) expressed in mammalian expression system assessed as residual activity at 1 uM by Kinomescan method relative to control
[14] = target: Interleukin-1 receptor-associated kinase 1 (Homo sapiens) (UniProt P51617); experiment: Inhibition of wild-type human partial length IRAK1 (R194 to S712 residues) expressed in mammalian expression system assessed as residual activity at 1 uM by Kinomescan method relative to control
Chain of Interleukin-1 receptor-associated kinase 1 (Homo sapiens) (P51617 whole entry, looked up, the tested form may be a part): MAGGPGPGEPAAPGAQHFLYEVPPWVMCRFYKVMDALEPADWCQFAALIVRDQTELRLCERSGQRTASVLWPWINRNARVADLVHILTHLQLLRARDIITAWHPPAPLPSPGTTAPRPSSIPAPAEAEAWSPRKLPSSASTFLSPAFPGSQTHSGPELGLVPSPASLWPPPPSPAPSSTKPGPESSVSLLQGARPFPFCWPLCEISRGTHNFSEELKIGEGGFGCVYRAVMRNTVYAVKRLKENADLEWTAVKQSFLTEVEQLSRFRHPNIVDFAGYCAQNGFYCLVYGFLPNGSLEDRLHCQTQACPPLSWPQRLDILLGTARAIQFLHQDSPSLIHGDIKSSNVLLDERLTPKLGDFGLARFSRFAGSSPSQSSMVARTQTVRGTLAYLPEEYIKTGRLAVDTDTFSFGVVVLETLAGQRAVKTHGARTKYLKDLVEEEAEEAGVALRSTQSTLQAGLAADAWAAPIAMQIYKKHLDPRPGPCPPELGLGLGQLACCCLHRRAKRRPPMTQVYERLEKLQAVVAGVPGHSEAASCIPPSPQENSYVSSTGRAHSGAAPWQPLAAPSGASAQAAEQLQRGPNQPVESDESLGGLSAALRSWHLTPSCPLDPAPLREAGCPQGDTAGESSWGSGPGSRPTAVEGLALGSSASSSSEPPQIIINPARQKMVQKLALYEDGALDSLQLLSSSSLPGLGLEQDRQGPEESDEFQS

[15] = target: Interleukin-1 receptor-associated kinase 4 (Homo sapiens) (UniProt Q9NWZ3); experiment: Inhibition of wild-type human partial length IRAK4 (M1 to S460 residues) expressed in mammalian expression system assessed as residual activity at 1 uM by Kinomescan method relative to control
[16] = target: Mast/stem cell growth factor receptor Kit (Homo sapiens) (UniProt P10721); experiment: Inhibition of wild-type human partial length autoinhibited KIT (Y545 to D952 residues) expressed in mammalian expression system assessed as residual activity at 1 uM by Kinomescan method relative to control
[17] = target: Myosin-IIIb (Homo sapiens) (UniProt Q8WXR4); experiment: Inhibition of wild-type human partial length MYO3B (M1 to D357 residues) expressed in bacterial expression system assessed as residual activity at 1 uM by Kinomescan method relative to control
[18] = target: Mitogen-activated protein kinase 13 (Homo sapiens) (UniProt O15264); experiment: Inhibition of wild-type human full length p38-delta (M1 to L365 residues) expressed in bacterial expression system assessed as residual activity at 1 uM by Kinomescan method relative to control
[19] = target: cAMP-dependent protein kinase catalytic subunit PRKX (Homo sapiens) (UniProt P51817); experiment: Inhibition of wild-type human partial length PRKX (M1 to F358 residues) expressed in bacterial expression system assessed as residual activity at 1 uM by Kinomescan method relative to control
Chain of cAMP-dependent protein kinase catalytic subunit PRKX (Homo sapiens) (P51817 whole entry, the tested form may be a part): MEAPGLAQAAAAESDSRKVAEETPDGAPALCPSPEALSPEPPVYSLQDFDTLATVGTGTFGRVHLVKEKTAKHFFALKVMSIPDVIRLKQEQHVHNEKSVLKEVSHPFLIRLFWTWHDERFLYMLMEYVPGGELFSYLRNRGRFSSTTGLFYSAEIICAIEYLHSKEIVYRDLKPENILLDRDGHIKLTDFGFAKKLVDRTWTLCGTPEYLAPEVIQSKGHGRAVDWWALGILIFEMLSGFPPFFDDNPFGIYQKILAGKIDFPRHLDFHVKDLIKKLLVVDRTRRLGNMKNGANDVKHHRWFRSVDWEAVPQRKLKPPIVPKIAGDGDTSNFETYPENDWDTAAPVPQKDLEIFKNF

[20] = target: Serine/threonine-protein kinase PRP4 homolog (Homo sapiens) (UniProt Q13523); experiment: Inhibition of wild-type human partial length PRP4 (D657 to I1007 residues) expressed in bacterial expression system assessed as residual activity at 1 uM by Kinomescan method relative to control
Chain of Serine/threonine-protein kinase PRP4 homolog (Homo sapiens) (Q13523 whole entry, the tested form may be a part): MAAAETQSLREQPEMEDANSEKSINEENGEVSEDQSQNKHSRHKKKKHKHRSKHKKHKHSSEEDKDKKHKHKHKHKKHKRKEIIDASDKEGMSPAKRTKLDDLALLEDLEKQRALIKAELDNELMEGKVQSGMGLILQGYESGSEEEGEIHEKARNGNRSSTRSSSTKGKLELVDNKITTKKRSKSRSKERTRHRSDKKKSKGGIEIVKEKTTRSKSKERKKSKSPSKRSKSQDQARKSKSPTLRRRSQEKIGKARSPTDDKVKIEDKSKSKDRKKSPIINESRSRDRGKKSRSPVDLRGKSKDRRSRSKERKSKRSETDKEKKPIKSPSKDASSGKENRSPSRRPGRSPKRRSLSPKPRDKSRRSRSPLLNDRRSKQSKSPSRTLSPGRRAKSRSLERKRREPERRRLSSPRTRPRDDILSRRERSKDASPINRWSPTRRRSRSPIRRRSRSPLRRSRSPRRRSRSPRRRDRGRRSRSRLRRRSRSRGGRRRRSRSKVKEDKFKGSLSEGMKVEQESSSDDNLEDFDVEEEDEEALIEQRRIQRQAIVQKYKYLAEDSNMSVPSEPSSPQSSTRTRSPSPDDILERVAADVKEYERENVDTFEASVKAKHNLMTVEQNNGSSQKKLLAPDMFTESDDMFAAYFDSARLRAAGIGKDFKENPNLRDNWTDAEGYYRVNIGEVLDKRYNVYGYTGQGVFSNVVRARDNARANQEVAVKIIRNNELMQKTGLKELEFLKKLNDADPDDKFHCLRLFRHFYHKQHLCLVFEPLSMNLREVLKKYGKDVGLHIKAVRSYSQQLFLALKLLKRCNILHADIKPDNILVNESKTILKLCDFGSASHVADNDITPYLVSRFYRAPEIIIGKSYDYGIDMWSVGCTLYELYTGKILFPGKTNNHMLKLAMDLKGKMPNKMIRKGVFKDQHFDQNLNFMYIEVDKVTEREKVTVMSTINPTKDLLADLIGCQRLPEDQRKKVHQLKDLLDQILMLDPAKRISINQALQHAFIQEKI

[21] = target: Dual serine/threonine and tyrosine protein kinase (Homo sapiens) (UniProt Q6XUX3); experiment: Inhibition of wild-type human full length RIPK5 (M1 to T929 residues) expressed in mammalian expression system assessed as residual activity at 1 uM by Kinomescan method relative to control
Chain of Dual serine/threonine and tyrosine protein kinase (Homo sapiens) (Q6XUX3 whole entry, the tested form may be a part): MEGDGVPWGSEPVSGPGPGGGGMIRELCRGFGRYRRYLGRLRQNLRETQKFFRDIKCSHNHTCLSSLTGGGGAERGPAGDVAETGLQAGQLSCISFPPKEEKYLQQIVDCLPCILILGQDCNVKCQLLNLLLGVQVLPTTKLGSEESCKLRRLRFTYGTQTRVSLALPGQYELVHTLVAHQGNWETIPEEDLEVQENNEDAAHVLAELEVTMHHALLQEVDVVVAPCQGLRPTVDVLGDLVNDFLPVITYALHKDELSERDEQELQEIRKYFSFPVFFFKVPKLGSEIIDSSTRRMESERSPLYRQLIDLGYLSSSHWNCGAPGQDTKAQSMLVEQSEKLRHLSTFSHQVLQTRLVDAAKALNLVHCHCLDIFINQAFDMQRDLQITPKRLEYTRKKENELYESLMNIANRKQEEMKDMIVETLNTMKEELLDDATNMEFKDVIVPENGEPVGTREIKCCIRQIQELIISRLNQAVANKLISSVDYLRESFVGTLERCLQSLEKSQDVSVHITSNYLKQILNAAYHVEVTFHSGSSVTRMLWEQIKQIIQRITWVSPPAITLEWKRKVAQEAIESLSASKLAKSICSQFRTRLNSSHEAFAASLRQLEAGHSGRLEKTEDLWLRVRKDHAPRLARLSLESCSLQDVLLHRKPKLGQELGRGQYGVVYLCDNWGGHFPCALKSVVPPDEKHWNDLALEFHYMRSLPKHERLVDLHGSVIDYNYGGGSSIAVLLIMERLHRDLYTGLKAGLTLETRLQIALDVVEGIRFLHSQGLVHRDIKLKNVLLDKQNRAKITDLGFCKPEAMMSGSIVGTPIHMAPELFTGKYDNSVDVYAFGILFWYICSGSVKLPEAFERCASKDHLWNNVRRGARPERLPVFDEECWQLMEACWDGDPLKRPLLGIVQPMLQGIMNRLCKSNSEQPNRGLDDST

[22] = target: Serine/threonine-protein kinase SBK1 (Homo sapiens) (UniProt Q52WX2); experiment: Inhibition of wild-type human partial length SBK1 (P23 to P348 residues) expressed in mammalian expression system assessed as residual activity at 1 uM by Kinomescan method relative to control
[23] = target: Tyrosine-protein kinase Srms (Homo sapiens) (UniProt Q9H3Y6); experiment: Inhibition of wild-type human partial length SRMS (L208 to P488 residues) expressed in mammalian expression system assessed as residual activity at 1 uM by Kinomescan method relative to control
[24] = target: Serine/threonine-protein kinase 35 (Homo sapiens) (UniProt Q8TDR2); experiment: Inhibition of wild-type human partial length STK35 (G182 to A534 residues) expressed in bacterial expression system assessed as residual activity at 1 uM by Kinomescan method relative to control
Chain of Serine/threonine-protein kinase 35 (Homo sapiens) (Q8TDR2 whole entry, the tested form may be a part): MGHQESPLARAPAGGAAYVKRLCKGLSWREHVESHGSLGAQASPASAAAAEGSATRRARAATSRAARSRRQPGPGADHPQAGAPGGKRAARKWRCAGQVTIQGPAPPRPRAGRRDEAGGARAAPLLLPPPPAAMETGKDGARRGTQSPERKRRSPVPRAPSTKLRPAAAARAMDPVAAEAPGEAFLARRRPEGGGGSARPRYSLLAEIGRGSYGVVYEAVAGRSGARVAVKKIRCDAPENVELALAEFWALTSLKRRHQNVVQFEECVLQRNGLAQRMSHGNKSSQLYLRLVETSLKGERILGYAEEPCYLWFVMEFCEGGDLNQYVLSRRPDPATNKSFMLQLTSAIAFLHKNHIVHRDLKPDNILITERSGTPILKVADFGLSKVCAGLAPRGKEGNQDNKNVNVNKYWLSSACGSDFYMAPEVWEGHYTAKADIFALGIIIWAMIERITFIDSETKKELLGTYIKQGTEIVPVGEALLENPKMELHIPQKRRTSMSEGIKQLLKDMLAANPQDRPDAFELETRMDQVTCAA

[25] = target: Non-receptor tyrosine-protein kinase TYK2 (Homo sapiens) (UniProt P29597); experiment: Inhibition of wild-type human partial length TYK2 JH2 pseudokinase domain (G556 to D888 residues) expressed in mammalian expression system assessed as residual activity at 1 uM by Kinomescan method relative to control

C=CC(=O)Nc1cc(Nc2cc(-c3cccc(NC(=O)c4ccc(C(C)(C)C)cc4)c3C)cn(C)c2=O)ccc1C(=O)N1CCOCC1
GI50 [1]: 3000 nM | EC50 [2]: < 30 nM | Activity [3]: 100% | Activity [4]: 93% | Activity [5]: 92% | Activity [6]: 100% | Activity [7]: 100% | Activity [8]: 99% | Activity [9]: 100% | Activity [10]: 93% | Activity [11]: 84% | Activity [12]: 100% | Activity [13]: 100% | Activity [14]: 100% | Activity [15]: 100% | Activity [16]: 100% | Activity [17]: 86% | Activity [18]: 84% | Activity [19]: 98% | Activity [20]: 100% | Activity [21]: 90% | Activity [22]: 100% | Activity [23]: 100% | Activity [24]: 94% | Activity [25]: 86%
